The subject of this experiment is cholesterol biosynthesis (sterol synthesis, rat liver homogenate). In words: CSI screen: incorporation of 14C-acetate into nonsaponifiable lipid by rat liver homogenate (inhibition of cholesterol biosynthesis). It counts as biochemical. The conditions noted are these: rat liver homogenate from cholestyramine-fed rats; inhibition of sterol synthesis over a one-hour period. As to the method: The ability of compounds of the present invention to inhibit the biosynthesis of cholesterol was measured by a method (designated CSI screen) which utilizes the procedure described by R. E. Dugan et al, Archiv. Biochem. Biophys., (1972), 152, 21-27. In this method, the level of HMG-CoA enzyme activity in standard laboratory rats is increased by feeding the rats a chow diet containing 5cholestyramine for four days, after which the rats are sacrificed.
The rat livers are homogenized, and the incorporation of 14C-acetate into nonsaponifiable lipid by the rat liver homogenate is measured. The micromolar concentration of compound required for 50inhibition of sterol synthesis over a one-hour period is measured, and expressed as an IC50 value.

Two compounds from patent US4761419A, “6-(((substituted)quinolinyl)ethyl)-and ethenyl)tetrahydro-4-hydroxypyran-2-one inhibitors of cholesterol biosynthesis” (Warner-Lambert Company, priority 1987, dated 1988) can be followed below.

Take `CC(C)c1nc2ccc(Cl)cc2c(-c2ccc(F)cc2)c1/C=C/[C@@H]1C[C@@H](O)CC(=O)O1` (relative stereo) [[4α,6β(E)]6-[2-[6-Chloro-4-(4-fluorophenyl)-2-(1-methylethyl)-3-quinolinyl]ethenyl]tetrahydro-4-hydroxy-2H-pyran-2-one]: half-maximal inhibition (IC50) was put at 32 nM. This lies in the double-digit nanomolar range.
Take `Cc1nc2ccc(Cl)cc2c(-c2ccc(F)cc2)c1/C=C/[C@@H]1C[C@@H](O)CC(=O)O1` (relative stereo) [CHCH, 4-Fluorophenyl, CH3, H, Cl, H, H, [4α,6β(E)]-6[-2-[6-Chloro-4-(4-fluorophenyl)-2-methyl-3-quinolinyl]ethenyl]-tetrahydro-4-hydroxy-2H-pyran-2-one]: half-maximal inhibition (IC50) required 350 nM.
